Target: T1, human α2A adrenergic receptor (Homo sapiens, UniProt P08913)
T1 construct: expressed in transfected cells; host or cells: CHO (Chinese hamster ovary) cells
T1 sequence (P08913 1-465): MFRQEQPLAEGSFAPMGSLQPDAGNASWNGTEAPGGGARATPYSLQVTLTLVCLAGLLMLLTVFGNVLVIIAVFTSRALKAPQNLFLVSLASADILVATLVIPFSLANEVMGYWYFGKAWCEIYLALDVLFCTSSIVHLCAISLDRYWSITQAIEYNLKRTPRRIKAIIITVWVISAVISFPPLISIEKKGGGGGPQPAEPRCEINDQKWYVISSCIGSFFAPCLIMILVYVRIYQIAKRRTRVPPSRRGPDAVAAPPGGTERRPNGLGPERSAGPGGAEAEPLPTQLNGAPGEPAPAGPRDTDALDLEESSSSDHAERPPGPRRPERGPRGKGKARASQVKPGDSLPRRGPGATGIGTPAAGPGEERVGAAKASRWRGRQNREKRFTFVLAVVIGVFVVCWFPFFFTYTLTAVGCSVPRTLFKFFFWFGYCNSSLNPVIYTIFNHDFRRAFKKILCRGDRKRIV
Assay: functional α2A adrenergic receptor antagonism assay in CHO cells (morphological response, versus agonist UK-14304)
Type: cell-based
Details: for inhibition at 10 µM: CHO, 100 minus % maximum agonist activity; for % Maximum Agonist Activity (percentage of maximum agonist activity induced by UK-14304): CHO cells expressing human α2A receptor, reading 6 minutes after addition
Experimental: The functional α2A adrenergic receptor antagonism assay was carried out in a platform in which the morphological response of CHO (Chinese hamster ovary) cells expressing α2A receptors was assessed. The functional assay was performed using as test items the (R)-pirlindole and the (rac)-pirlindole.
The CHO cells, expressing the human α2A adrenergic receptor were plated the day before the experiment in an adequate culture medium. The compounds were added to the wells and readings were taken 6 minutes later. Responses from the samples were compared to control responses to assess agonist or antagonist activity. The percentage of maximal activity (% Maximum Activity) translates the percentage of agonist activity induced by the α2A agonist, UK-14304 (5-Bromo-N-(2-imidazolin-2-yl)-6-quinoxalinamine, 5-Bromo-N-(4,5-dihydro-1H-imidazol-2-yl)-6-quinoxalinamine, brimonidine) commercialized by the company Sigma-Aldrich.

antagonist activity on α2A adrenergic receptors, times less than (R)-pirlindole (10 μM, ratio of inhibition versus (R)-pirlindole) | inhibition at 10 µM (test compound 10 μM) | % Maximum Agonist Activity (percentage of maximum agonist activity induced by UK-14304) (test compound 1 μM) | % Maximum Agonist Activity (percentage of maximum agonist activity induced by UK-14304) (test compound 5 μM) | % Maximum Agonist Activity (percentage of maximum agonist activity induced by UK-14304) (test compound 10 μM) | Structure (SMILES)
~4 times | 11% | 98.47% | 96.50% | 89.02% | Cc1ccc2c(c1)c1c3n2CCNC3CCC1 (racemic) [(rac)-pirlindole, 2,3,3a,4,5,6-hexahydro-8 methyl-1H-pyrazino [3,2,1-j, k] carbazole]
– | 40.3% | 107.76% | 87.37% | 59.72% | Cc1ccc2c(c1)c1c3n2CCN[C@@H]3CCC1 [(R)-pirlindole]
